Measurements: patent publication US8420657B2 (Novartis AG, priority 2008, dated 2013)
pIC50: −log10 of the molar value.

These molecules were tested against T1, GST-JAK2(808-1132) (Homo sapiens, UniProt O60674) (assay: JAK2 kinase assay (Caliper mobility shift, LabChip 3000)). Settings: not given.
T1 construct: GST-JAK2(808-1132); purchased Invitrogen (Carlsbad, USA) #4288
Type: biochemical
Procedure, shortened: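 Recombinant GST-JAK2(808-1132) kinase domain with FITC-labelled JAK3tide peptide substrate and ATP; 60 min at 30 °C, EDTA stop. Substrate/product ratio read by microfluidic mobility shift; compounds at 8 final concentrations, 10 to 0.003 μM.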

T1 sequence (O60674 808-1132): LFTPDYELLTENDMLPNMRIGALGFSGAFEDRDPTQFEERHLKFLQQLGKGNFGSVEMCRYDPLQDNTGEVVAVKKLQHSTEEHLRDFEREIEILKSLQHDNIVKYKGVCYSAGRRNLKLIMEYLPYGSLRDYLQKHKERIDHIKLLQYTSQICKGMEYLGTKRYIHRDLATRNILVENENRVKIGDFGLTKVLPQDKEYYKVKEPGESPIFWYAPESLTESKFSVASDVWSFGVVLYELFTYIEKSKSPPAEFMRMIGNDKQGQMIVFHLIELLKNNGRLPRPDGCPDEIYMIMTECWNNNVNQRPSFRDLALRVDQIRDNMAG

pIC50	Compound
≥ 8.52	CCc1ccc(-n2ccc3cnc(Nc4ccc(N5CCN(C)CC5)nc4)nc32)cc1 [Example 438, [7-(4-Ethyl-phenyl)-7H-pyrrolo[2,3-d]pyrimidin-2-yl]-[6-(4-methyl-piperazin-1-yl)-pyridin-3-yl]-amine]
7.72	Cc1cc(C#N)ccc1-n1ccc2cnc(Nc3ccc(N4CCN(C)CC4)nc3)nc21 [Example 439, 3-Methyl-4-{2-[6-(4-methyl-piperazin-1-yl)-pyridin-3-ylamino]-pyrrolo[2,3-d]pyrimidin-7-yl}-benzonitrile]
≥ 8.52	O=S1(=O)CCN(Cc2c(F)cc(-n3ccc4cnc(Nc5ccnc(N6CCNC7(CC7)C6)c5)nc43)cc2F)CC1 [Example 442]
7.37	CN1CCN(c2ccc(Nc3ncc4ccn(-c5cc(F)c(C#N)c(F)c5)c4n3)cn2)CC1 [Example 445, 2,6-Difluoro-4-{2-[6-(4-methyl-piperazin-1-yl)-pyridin-3-ylamino]-pyrrolo[2,3-d]pyrimidin-7-yl}-benzonitrile]
≥ 8.52	Cc1ccc(Nc2ncc3ccn(-c4cc(F)c(CN5CCOCC5)c(F)c4)c3n2)cc1CN1CCC2(CCN(C)C2)C1 (stereo not drawn) [Example 450, [7-(3,5-Difluoro-4-morpholin-4-ylmethyl-phenyl)-7H-pyrrolo[2,3-d]pyrimidin-2-yl]-[4-methyl-3-(7-methyl-2,7-diaza-spiro[4.4]non-2-ylmethyl)-phenyl]-amine]
≥ 8.52	Cc1cc(Nc2ncc3ccn(-c4cc(F)c(CN5CCOCC5)c(F)c4)c3n2)ccc1CN1CCNCC1 [Example 460, [7-(3,5-Difluoro-4-morpholin-4-ylmethyl-phenyl)-7H-pyrrolo[2,3-d]pyrimidin-2-yl]-(3-methyl-4-piperazin-1-ylmethyl-phenyl)-amine]
≥ 8.52	Cc1cc(Nc2ncc3ccn(-c4cc(F)c(CN5CCOCC5)c(F)c4)c3n2)ccc1CN1C[C@@H](C)N[C@@H](C)C1 [Example 461, [7-(3,5-Difluoro-4-morpholin-4-ylmethyl-phenyl)-7H-pyrrolo[2,3-d]pyrimidin-2-yl]-[4-(cis-3,5-dimethyl-piperazin-1-ylmethyl)-3-methyl-phenyl]-amine]
8.34	Cc1ccc(Nc2ncc3ccn(-c4cc(F)c(CN5CCOCC5)c(F)c4)c3n2)cc1Cn1cc(CCO)cn1 [Example 467, 2-(1-{5-[7-(3,5-Difluoro-4-morpholin-4-ylmethyl-phenyl)-7H-pyrrolo[2,3-d]pyrimidin-2-ylamino]-2-methyl-benzyl}-1H-pyrazol-4-yl)-ethanol]
8.29	Cc1cnn(Cc2cc(Nc3ncc4ccn(-c5cc(F)c(CN6CCOCC6)c(F)c5)c4n3)ccc2C)c1 [Example 481, [7-(3,5-Difluoro-4-morpholin-4-ylmethyl-phenyl)-7H-pyrrolo[2,3-d]pyrimidin-2-yl]-[4-methyl-3-(4-methyl-pyrazol-1-ylmethyl)-phenyl]-amine]

Second part, the molecule before the results:

Compound	pIC50
CC(C)Oc1ccc(Nc2ncc3ccn(-c4ccc(C(C)N5CCOCC5)cc4)c3n2)cc1 (racemic) [Example 193, (4-Isopropoxy-phenyl)-{7-[4-(1-morpholin-4-yl-ethyl)-phenyl]-7H-pyrrolo[2,3-d]pyrimidin-2-yl}-amine]	8.08
C[C@@H]1CN(Cc2ccc(Nc3ncc4ccn(-c5cc(F)c(CN6CCOCC6)c(F)c5)c4n3)cc2)[C@@H](C)CN1 (racemic) [Example 260, [7-(3,5-Difluoro-4-morpholin-4-ylmethyl-phenyl)-7H-pyrrolo[2,3-d]pyrimidin-2-yl]-[4-((2S,5R)-2,5-dimethyl-piperazin-1-ylmethyl)-phenyl]-amine]	8.30
CN1CCN(c2ccc(Nc3ncc4ccn(-c5cc(F)c(CN6CCNC(=O)C6)c(F)c5)c4n3)cc2)CC1 [Example 341, 4-(2,6-Difluoro-4-{2-[4-(4-methyl-piperazin-1-yl)-phenylamino]-pyrrolo[2,3-d]pyrimidin-7-yl}-benzyl)-piperazin-2-one]	≥ 8.52
Cc1ccc(Nc2ncc3ccn(-c4cc(F)c(CN5CCNC(=O)C5)c(F)c4)c3n2)cc1CN1CCOCC1 [Example 344, 4-{2,6-Difluoro-4-[2-(4-methyl-3-morpholin-4-ylmethyl-phenylamino)-pyrrolo[2,3-d]pyrimidin-7-yl]-benzyl}-piperazin-2-one]	≥ 8.52
CC(C)(C)NS(=O)(=O)c1ccc(-n2ccc3cnc(Nc4ccc(CN5CCN(C6CC6)CC5)cc4)nc32)cc1 [Example 345, N-tert-Butyl-4-{2-[4-(4-cyclopropyl-piperazin-1-ylmethyl)-phenylamino]-pyrrolo[2,3-d]pyrimidin-7-yl}-benzenesulfonamide]	8.48
CN1CCN(c2ccc(Nc3ncc4ccn(-c5ccc(S(=O)(=O)NC(C)(C)C)cc5)c4n3)cc2)CC1 [Example 348, N-tert-Butyl-4-{2-[4-(4-methyl-piperazin-1-yl)-phenylamino]-pyrrolo[2,3-d]pyrimidin-7-yl}-benzenesulfonamide]	8.21
CN1CCN(c2ccc(Nc3ncc4ccn(-c5ccc(S(N)(=O)=O)cc5)c4n3)cc2)CC1 [Example 349, 4-{2-[4-(4-Methyl-piperazin-1-yl)-phenylamino]-pyrrolo[2,3-d]pyrimidin-7-yl}-benzenesulfonamide]	7.80
Cc1ccc(Nc2ncc3ccn(-c4ccc(S(N)(=O)=O)cc4)c3n2)cc1CN1CCN(C)CC1 [Example 368, 4-{2-[4-Methyl-3-(4-methyl-piperazin-1-ylmethyl)-phenylamino]-pyrrolo[2,3-d]pyrimidin-7-yl}-benzenesulfonamide]	8.49
Cc1ccc(Nc2ncc3ccn(-c4cc(F)c(CN5CCOCC5)c(F)c4)c3n2)cc1CN1CCNC2(CC2)C1 [Example 373, [3-(4,7-Diaza-spiro[2.5]oct-7-ylmethyl)-4-methyl-phenyl]-[7-(3,5-difluoro-4-morpholin-4-ylmethyl-phenyl)-7H-pyrrolo[2,3-d]pyrimidin-2-yl]-amine]	8.37
Cc1ccc(Nc2ncc3ccn(-c4ccc(C(=O)N5CCOCC5)c(F)c4)c3n2)cc1CN1CCNC2(CC2)C1 [Example 374, (4-{2-[3-(4,7-Diaza-spiro[2.5]oct-7-ylmethyl)-4-methyl-phenylamino]-pyrrolo[2,3-d]pyrimidin-7-yl}-2-fluoro-phenyl)-morpholin-4-yl-methanone]	8.00
O=C1NC(c2ccc(Nc3ncc4ccn(-c5cc(F)c(CN6CCOCC6)c(F)c5)c4n3)cc2)CN2CCCCC12 (stereo not drawn) [Example 389, 3-{4-[7-(3,5-Difluoro-4-morpholin-4-ylmethyl-phenyl)-7H-pyrrolo[2,3-d]pyrimidin-2-ylamino]-phenyl}-hexahydro-pyrido[1,2-a]pyrazin-1-one]	≥ 8.52
Cc1ccc(Nc2ncc3ccn(-c4cc(F)c(CN5CCOCC5)c(F)c4)c3n2)cc1COC1CNC1 [Example 420, [3-(Azetidin-3-yloxymethyl)-4-methyl-phenyl]-[7-(3,5-difluoro-4-morpholin-4-ylmethyl-phenyl)-7H-pyrrolo[2,3-d]pyrimidin-2-yl]-amine]	≥ 8.52
Cc1ccc(Nc2ncc3ccn(-c4ccc(C(=O)N5CCOCC5)cc4)c3n2)cc1CN1CCN(C)CC1 [Example 437, (4-{2-[4-Methyl-3-(4-methyl-piperazin-1-ylmethyl)-phenylamino]-pyrrolo[2,3-d]pyrimidin-7-yl}-phenyl)-morpholin-4-yl-methanone]	8.48

What follows are molecules tested on JAK1/JAK2-dependent nuclear translocation of STAT1-GFP in HT1080 fibrosarcoma cells (assay: STAT1 nuclear translocation assay (Cellomics), IFN-γ stimulated HT1080 STAT1-GFP cells). Settings: Homo sapiens, HT-1080, STAT1 translocation pathway.
Type: cell-based
From the text: The medium-throughput (96-well format) cellular automated fluorescence microscopy Cellomics assay can be routinely used to assess the functional activation of Janus Kinases (JAKs), based on the nuclear translocation of their substrate, Signal Transducer and Activator of Transcription (STAT). Nuclear translocation can be monitored either in HT1080 fibrosarcoma cells stably transfected with STAT1 fused to Green Fluorescence Protein (GFP) or in U-2 OS osteosarcoma cells stably transfected with STAT5 fused to Green Fluorescence Protein (GFP). Stimulation of HT1080 cells with interferon-γ (IFN-γ) results in JAK1/JAK2-dependent nuclear translocation of STAT1-GFP, whereas stimulation of U-2 OS cells with recombinant human erythropoietin (rhEpo) results in JAK2-dependent nuclear translocation of STAT5-GFP, both of which can be quantified using the Cellomics Cyto/NucTrans software package. This assay may be used to provide an assessment of the nuclear-cytoplasmic differential (NCD) of STAT-GFP using Hoechst dye to define the boundaries of the nucleus.
HT1080 fibrosarcoma cells may be obtained from ATCC and can be cultured in alpha Modified Eagle Medium with 10% FCS. Cells can be transfected with pEGFP-N2 STAT1 using Fugene 6 Transfection Reagent following the manufacturers' protocol. 24 hours after transfection the medium can be replaced and selected in 1 mg/ml Geneticin.
Compounds can be dissolved in DMSO to a final stock concentration of 10 mM and stored as aliquots at 4° C. Compounds may be pre-diluted in 100% DMSO at 10 mM, 3 mM 1 mM, 0.3 mM, 0.1 mM, 0.03 mM, 0.01 mM and 0.003 mM. Subsequently, compounds may be diluted in medium and added in 50 μl to the cells. The final compound concentrations tested may be 10 μM, 3 μM 1 μM, 0.3 μM, 0.1 μM, 0.03 μM, 0.01 μM and 0.003 μM and the final DMSO concentration can be 0.1%.
HT1080 STAT1-GFP cells may be seeded at a density of 10,000 cells per well in clear-bottom black 96-well Packard View-Plates™. 16-24 hours later, the cells can be treated for 2 hours with 100 ng/ml IFN-γ, washed twice in pre-warmed PBS and fixed in 200 μl of pre-warmed fixation solution (PBS, 3.7% Formaldehyde) for 10 minutes. The plates may be washed twice in 200 μl PBS and incubated, protected from light, in 100 μl of DNA-staining solution (PBS, 0.5 μg/ml Hoechst-33342) for 1 minute. The plates may then be washed once in PBS, and 200 μl PBS finally added per well. The plates, being finally covered with a black adhesive, may be either read directly or stored at 4° C. for later imaging. Where appropriate, the compounds may be added 30 min before stimulation with IFN-γ.
The plates can be read on a Cellomics® ArrayscanII automated fluorescence microscope plate reader equipped with a Mercury-Xenon white light illumination source and a Zeiss Axiovert inverted microscope, using the XF100 dichroic/emission filter cube and matching excitation filters, 10× magnification, and a 0.3 numerical aperture objective. Image acquisition and analysis can be performed using a customized protocol based on the ‘NuclearTranslocation’ Bioapplication. For each well, multiple images (fields) can be acquired until a minimum of 1000 cells are counted using two 2 channels: Channel 1 (Hoechst)=focus+nuclear mask, Channel 2 (GFP)=signal quantification in mask areas as outlined below. Nuclei may be first identified based on the Hoechst staining and a mask generated for each nucleus that then serves as a template to generate a circle (eroded inwards by 1 pixel) and a 3 pixel-wide collar-like ring (off-set outwards by 1 pixel), in which the nuclear and cytoplasmic intensity of GFP, respectively, are quantified in the corresponding channel. High content analysis yields numerous measurements per cell and the GFP intensity differential between the nuclear and the cytoplasmic masks may be chosen as a measure of sub-cellular STAT-GFP relocation. The resulting values may be averaged for all cells in the well to return a single measurement plus standard deviation. […]

pIC50	Compound
6.45	CC(C)Oc1ccc(Nc2ncc3ccn(-c4ccc(C(C)N5CCOCC5)cc4)c3n2)cc1 (racemic) [Example 193, (4-Isopropoxy-phenyl)-{7-[4-(1-morpholin-4-yl-ethyl)-phenyl]-7H-pyrrolo[2,3-d]pyrimidin-2-yl}-amine]
6.55	C[C@@H]1CN(Cc2ccc(Nc3ncc4ccn(-c5cc(F)c(CN6CCOCC6)c(F)c5)c4n3)cc2)[C@@H](C)CN1 (racemic) [Example 260, [7-(3,5-Difluoro-4-morpholin-4-ylmethyl-phenyl)-7H-pyrrolo[2,3-d]pyrimidin-2-yl]-[4-((2S,5R)-2,5-dimethyl-piperazin-1-ylmethyl)-phenyl]-amine]
